# Results taken from article PMC6895180 (Nature Communications, 2019).
# Values joined by “and” are separate entries in the source; they are usually repeats but may differ in a detail not shown here. Equal entries are not always repeated. Where two headings read alike, the source gives them in different places. Marks after values point to notes of the source that are not given here.
# Columns and labels:
# T. brucei Squib 427 = experiment: microbe, parasite or virus in culture; format: cell-based, Trypanosoma brucei brucei
# Method: (§1) Drug susceptibility tests with Lister 427WT, TbAT1-KO[48], B48[26] and ISMR1[27] were performed using an assay based on the viability indicator dye resazurin in 96-well plates, each well containing 2 × 10^4 cells. The plates were incubated for 48 h with a doubling dilution series of the test compounds in HMI-9/fetal bovine serum at 37 °C/5% CO2 (23 dilutions starting at 100 µM, except for the pentamidine control (50 µM)), after which resazurin (20 µL of 125 µg mL^−1 resazurin sodium salt solution was added to each well (containing 200 µL of cells and test compound)) was added to each well and the plates incubated for another 24 h. Fluorescence was determined using a FLUOstar Optima (BMG Labtech, Durham, NC) and the results fitted to a sigmoid curve with variable slope using Prism 5.0 or Prism 7.04 (GraphPad, San Diego, CA).
# (§2) Susceptibility assays with T. brucei Squib 427[49] or T. b. rhodesiense STIB-900[50] were performed under similar conditions as above, but using 10 concentrations of a 4-fold compound dilution series starting at 64 µM. Trypanosoma brucei Squib 427 was seeded at 1.5 × 10^4 parasites/well and T. b. rhodesiense at 4 × 10^3 parasites per well, followed by the addition of resazurin (final concentration of 10 µg mL^−1) after 24 h (T. brucei) or 6 h (T. b. rhodesiense).
# [1] = tested on: T. b. rhodesiense STIB-900; experiment: microbe, parasite or virus in culture; format: cell-based, Trypanosoma brucei rhodesiense; conditions: Trypanosoma brucei, RHODESIENSE
# Method: as §1, §2
# [2] = Cytotoxicity on MRC-5 fibroblasts (resazurin); format: cell-based, human; conditions: human, MRC-5SV2 human embryonic lung fibroblasts
# Method: Cytotoxicity assays were performed on MRC-5SV2 (Sigma-Aldrich/ECACC, catalogue number 84100401) human embryonic lung fibroblasts, which were cultured in minimum essential medium with Earle’s salt medium, supplemented with L-glutamine, NaHCO3 and 5% inactivated foetal calf serum. All cultures and assays were conducted at 37 °C with 5% CO2. Ten microliters of the aqueous compound dilutions were added to 190 µL of MRC-5SV2 (3 × 10^4 cells mL^−1). Cell growth was compared to untreated control wells (100% cell growth) and medium control wells (0% cell growth). After a 3-day incubation, cell viability was assessed fluorimetrically after the addition of 50 μL resazurin per well (final concentration of 10 µg mL^−1). After 4 h at 37 °C, fluorescence was measured (λex 550 nm, λem 590 nm). The results were expressed as percentage reduction in cell growth/viability compared to control wells and an EC50 was determined.
# [3] = tested on: T. b. brucei Lister 427WT; experiment: Drug susceptibility test (resazurin), Lister 427WT; format: cell-based, Trypanosoma brucei brucei
# Method: as §1
# [4] = tested on: ISMR1: isometamidium-resistant T. brucei cell line; experiment: microbe, parasite or virus in culture; format: cell-based, Trypanosoma brucei brucei
# Method: as §1
# [5] = tested on: TbAT1-KO: T. brucei cell line lacking the TbAT1(P2) transporter gene; experiment: microbe, parasite or virus in culture; format: cell-based, Trypanosoma brucei brucei
# Method: as §1
# [6] = tested on: B48: pentamidine, diminazene and melaminophenyl arsenical resistant T. brucei line; experiment: microbe, parasite or virus in culture; format: cell-based, Trypanosoma brucei brucei
# [7] = Metabolic stability, mouse liver microsomes (phase I and II)
# Method: (§3) Mouse, rat, and pooled human liver microsomes were purchased from a commercial source (Corning) and stored at -80 °C. NADPH generating system solutions A and B and UGT reaction mix solutions A and B (Corning) were kept at -20°C. The test compound and the reference compounds diclofenac (MW […]
# (§4) microsomal stability assay was carried out based on the BD Biosciences Guidelines for Use (TF000017 Rev1.0) with minor adaptations. Metabolic stability of the compounds was studied through the CYP450 superfamily (phase I metabolism) by fortification with reduced nicotinamide adenine dinucleotide phosphate (NADPH) and through uridine glucuronosyl-transferase (UGT) enzymes (phase II metabolism) by fortification with uridine diphosphate glucuronic acid (UDPGA). For the CYP450 and other NADPH dependent enzymes, both compounds were incubated at 5 µM together with 0.5 mg mL-1 liver microsomes in potassium phosphate buffer in a reaction started by the addition of 1 mM NADPH […]
# (§5) At these time points, 20 µL was withdrawn from the reaction mixture and 80 µL cold acetonitrile (ACN) containing the internal standard tolbutamide, was added to inactivate the enzymes and precipitate the proteins. The mixture was vortexed for 30 s and centrifuged at 4 °C for 5 min at 15,000 rpm. The supernatant was stored at -80°C until analysis. For the UGT enzymes, both compounds were incubated at 5 µM together with 0.5 mg mL-1 liver microsomes in a reaction started by the addition of 2 mM UDPGA cofactor. The corresponding loss of parent compound was determined using liquid chromatography (UPLC) (Waters AquityTM) coupled with tandem quadrupole mass spectrometry (MS²) (Waters XevoTM), equipped with an electrospray ionization (ESI) interface and operated in multiple reaction monitoring (MRM) mode. […]
# [8] = Metabolic stability, rat liver microsomes (phase I and II)
# Method: as §3, §4, §5
# [9] = Metabolic stability, pooled human liver microsomes (phase I and II)
# Method: as §3, §4, §5
# P1 transporter = format: cell-based, Trypanosoma brucei; conditions: mean ± SEM, n = 3
# Method: Non-specific association of radiolabel with the cell pellet was determined using an identical incubation in the presence of saturating (1 mM) unlabelled adenosine.
# T. brucei ADKIN = biological target: T1, T. brucei ADKIN (Trypanosoma brucei brucei, UniProt Q584S6); experiment: ADKIN assay (phosphorylation by purified recombinant enzyme, HPLC); format: biochemical
# T1 sequence (Q584S6 1-345): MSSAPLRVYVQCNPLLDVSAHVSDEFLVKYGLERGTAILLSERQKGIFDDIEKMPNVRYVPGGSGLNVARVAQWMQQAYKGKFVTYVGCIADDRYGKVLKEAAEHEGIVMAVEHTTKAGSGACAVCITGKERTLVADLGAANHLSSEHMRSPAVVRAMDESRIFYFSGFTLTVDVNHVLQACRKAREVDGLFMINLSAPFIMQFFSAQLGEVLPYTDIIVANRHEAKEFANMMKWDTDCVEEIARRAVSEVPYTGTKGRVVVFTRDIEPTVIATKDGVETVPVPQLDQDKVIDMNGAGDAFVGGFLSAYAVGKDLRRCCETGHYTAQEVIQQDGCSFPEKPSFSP
# Method: The T. brucei ADKIN enzyme was diluted in a buffer containing 0.05% (v/v) Tween-20, 50 mM KCl, 0.1 mM dithiothreitol, and 50 mM Tris-HCl, pH 7.5 (dilution buffer), prior to use in the assay. The final assay mixture contained 12.5 ng T. brucei ADKIN, a range between 50 and 1000 µM of nucleoside 9 (or 1000 µM deoxyadenosine in the control reaction), 100 mM KCl, 10 mM MgCl2, 0.5 mM ATP, 5 mM potassium phosphate and 50 mM Tris-HCl, pH 7.5. The assay was incubated at 37 °C for 30 min, and subsequently heated for 2 min at 100 °C to inactivate the enzyme, diluted with 2 volumes of water, centrifuged through a Nanosep 3k Omega filter and mixed 1:1:2 with water and mobile phase. The HPLC analysis was performed on a 2.1 × 150 mm ACE Excel C18 column using a mobile phase composition 4A:76B:20C (see nucleotide pool analysis, Supplementary Information for details). Using these conditions, consecutive samples could be loaded (Supplementary Fig. 12). After 4–5 samples, the column was washed with high percent A (80A:20C) to remove bound ADP and ATP before re-equilibrating the column to original conditions.
# [10] = resistance factor vs Lister 427WT
smiles,measurement,setting,value
"Nc1ncnc2c1ccn2[C@H]1C[C@H](O)[C@@H](CO)O1 [Compound 11, 2′-Deoxy-TUB]",EC50,"T. brucei Squib 427; Trypanosoma brucei, Alamar blue cell viability assay, mean and SEM, read-out: T. b. brucei EC50",48 ± 1 µM
same,EC50,"T. brucei Squib 427; Trypanosoma brucei, source data, read-out: T. brucei brucei EC50, Average",48.5 µM
same,EC50,"T. brucei Squib 427; Trypanosoma brucei, source data, read-out: T. brucei brucei EC50, single measurements",49.9 µM
same,SI (MRC/T.b. brucei),T. brucei Squib 427; selectivity index,1.3
same,EC50,"T. brucei Squib 427; source data, read-out: T. brucei brucei EC50, single measurements",47.2 µM
same,EC50,"[1]; Alamar blue cell viability assay, mean and SEM, read-out: T. b. rhodesiense EC50",> 64 µM
same,EC50,"[1]; source data, read-out: T. brucei rhodesiense EC50, single measurements",> 64 µM
same,EC50 at 3 day,"[2]; cytotoxicity in human MRC-5 fibroblasts, mean and SEM, read-out: MRC-5 EC50",> 64 µM
same,EC50 at 3 day,"[2]; source data, read-out: MRC-5 EC50, single measurements",> 64 µM
same,EC50,"[3]; Trypanosoma brucei, mean and SEM, n = 3, read-out: Lister 427 EC50",96.4 ± 13.8 µM
same,EC50,"[3]; Trypanosoma brucei, source data, read-out: s427 EC50, single determinations",82.6 µM
same,EC50,"[3]; source data, read-out: s427 EC50, single determinations",97.4 µM
same,EC50,"[4]; Trypanosoma brucei, mean and SEM, n = 3, read-out: ISMR1 EC50",77.8 ± 1.7 µM
same,EC50,"[4]; Trypanosoma brucei, source data, read-out: ISMR1 EC50, single determinations",77.3 µM
same,RF (ISMR1),[4]; [10],0.81
same,EC50,"[4]; source data, read-out: ISMR1 EC50, single determinations",81 µM and 75.1 µM
same,EC50,"[5]; Trypanosoma brucei, read-out: TbAT1-KO EC50, mean and SEM, n = 3",43.7 ± 2.2 µM
same,EC50,"[5]; Trypanosoma brucei, read-out: TbAT1-KO EC50, single determinations, source data",41.5 µM
same,EC50,"[5]; read-out: TbAT1-KO EC50, single determinations, source data",45.9 µM and 46.9 µM
same,RF (TbAT1-KO),[5]; resistance factor: ratio of EC50 of resistant and Lister 427WT,0.45**
same,EC50,"[6]; Trypanosoma brucei, mean and SEM, n = 3, read-out: B48 EC50",41.8 ± 1.4 µM
same,EC50,"[6]; Trypanosoma brucei, source data, read-out: B48 EC50, single determinations",40.3 µM
same,RF (B48),[6]; [10],0.43**
same,EC50,"[6]; source data, read-out: B48 EC50, single determinations",43.2 µM and 40.8 µM
"O=C(O)Cc1ccccc1Nc1c(Cl)cccc1Cl [Diclo, diclofenac, reference compound]",% parent compound remaining,"[7]; CYP - NADPH, 15 min",83±14%
same,% parent compound remaining,"[7]; CYP - NADPH, 30 min",67±5.7%
same,% parent compound remaining,"[7]; CYP - NADPH, 60 min",52±0.3%
same,% parent compound remaining,"[7]; UGT Enzymes, 15 min",42±21%
same,% parent compound remaining,"[7]; UGT Enzymes, 30 min",46±10%
same,% parent compound remaining,"[7]; UGT Enzymes, 60 min",34±9%
same,% parent compound remaining,"[8]; CYP - NADPH, 15 min",59±9%
same,% parent compound remaining,"[8]; CYP - NADPH, 30 min",39±2.6%
same,% parent compound remaining,"[8]; CYP - NADPH, 60 min",10±2.9%
same,% parent compound remaining,"[8]; UGT Enzymes, 15 min",28±4.5%
same,% parent compound remaining,"[8]; UGT Enzymes, 30 min",14±1.5%
same,% parent compound remaining,"[8]; UGT Enzymes, 60 min",11±0.9%
same,% parent compound remaining,"[9]; CYP - NADPH, 15 min",35±0.4%
same,% parent compound remaining,"[9]; CYP - NADPH, 30 min",14±0.8%
same,% parent compound remaining,"[9]; CYP - NADPH, 60 min",2±0.4%
same,% parent compound remaining,"[9]; UGT Enzymes, 15 min",17±1.1%
same,% parent compound remaining,"[9]; UGT Enzymes, 30 min",14±0.7%
same,% parent compound remaining,"[9]; UGT Enzymes, 60 min",10±0.1%
"Nc1ncnc2c1ncn2[C@@H]1O[C@H](CO)[C@@H](O)[C@H]1O [Adenosine, reference compound]",Km,P1 transporter,0.12 ± 0.02 µM
"Nc1ncnc2c1ncn2[C@H]1C[C@H](O)[C@@H](CO)O1 [dAdo, 2′-deoxyadenosine, reference compound]",product concentration (Conc.9-MP),"T. brucei ADKIN; TbAK control reaction, [dAdo] 1000 µM",34.4568 and 29.4118 and 31.8858
same,Act (U/mg),"T. brucei ADKIN; TbAK, substrate 1000 µM",4.594 U/mg and 3.922 U/mg and 4.251 U/mg
